# Reference: patent US20230190643A1, “IMPLANT FOR TREATMENT OF AN OCULAR CONDITION” (Allergan, Inc., priority 2015, published 2023)
# Key:
# GC receptor = target: T1, GC receptor (Homo sapiens, UniProt P04150); settings: GC receptor-binding (Tajika 2011b); cited from earlier work
# T1 sequence (P04150 1-777): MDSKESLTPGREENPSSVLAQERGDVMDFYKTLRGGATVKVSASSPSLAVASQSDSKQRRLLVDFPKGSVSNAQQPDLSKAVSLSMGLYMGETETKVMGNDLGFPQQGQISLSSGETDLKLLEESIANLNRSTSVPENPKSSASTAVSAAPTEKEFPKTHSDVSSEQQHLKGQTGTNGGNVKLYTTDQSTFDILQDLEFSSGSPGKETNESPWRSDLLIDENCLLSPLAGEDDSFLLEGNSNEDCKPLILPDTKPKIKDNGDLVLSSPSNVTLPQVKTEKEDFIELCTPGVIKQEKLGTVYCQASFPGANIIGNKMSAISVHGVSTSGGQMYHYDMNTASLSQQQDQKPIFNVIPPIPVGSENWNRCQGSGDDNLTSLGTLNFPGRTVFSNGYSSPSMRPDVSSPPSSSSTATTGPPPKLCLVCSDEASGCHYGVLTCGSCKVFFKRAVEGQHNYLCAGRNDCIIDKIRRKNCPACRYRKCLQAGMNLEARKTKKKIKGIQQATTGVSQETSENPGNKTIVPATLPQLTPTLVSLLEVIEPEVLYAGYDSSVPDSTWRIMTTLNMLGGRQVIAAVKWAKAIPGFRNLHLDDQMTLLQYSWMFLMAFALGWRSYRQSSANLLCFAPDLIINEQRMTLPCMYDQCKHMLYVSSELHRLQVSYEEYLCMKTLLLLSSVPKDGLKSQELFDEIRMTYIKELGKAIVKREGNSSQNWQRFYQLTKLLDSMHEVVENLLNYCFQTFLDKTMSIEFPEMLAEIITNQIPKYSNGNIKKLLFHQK
# male and female rats = settings: subcutaneous up to 10 μg/kg/day prior to and during mating; cited from earlier work
# [1] = Impact of gamma irradiation (46 kGy) on difluprednate assay of implant formulations; assay type: physicochemical
# Method: Terminal moist heat sterilization is not a viable method due to the fact that ENV905 is a solid dosage form designed to disintegrate in aqueous environments. Therefore, studies to evaluate gamma irradiation were conducted on early ENV905 formulations to determine if ionizing radiation was a viable option for a terminally sterilized drug product. ENV905 implants were exposed to gamma irradiation with a dose of 46 kGy per ISO 11137-2:2012 (Sterilization of Health Care Products—Radiation—Part 2: Establishing the Sterilization Dose). The implant formulations used for these studies consisted of a blend of difluprednate and PEGs.
# Implants were individually packaged in HPLC vials with air headspace and polytetrafluoroethylene (PTFE)-lined screw caps. Ten individual implants (n=10) were tested for difluprednate assay.
# CHL/IU = settings: cited from earlier work
# mice = settings: cited from earlier work
# rodents and non-rodents = settings: consistent between species; cited from earlier work
# Ames test = settings: cited from earlier work
# rabbits = settings: subcutaneous during organogenesis, cited from earlier work
Structure (SMILES),Ki (GC receptor),fertility (male and female rats),Degradation ([1]; Radiation Dose 46 kGy),Difluprednate Assay ([1]; Radiation Dose 46 kGy),Difluprednate Assay ([1]; Radiation Dose None),genotoxicity in cultured mammalian cells CHL/IU (CHL/IU),in vivo micronucleus test (mice),"no-observed-effect-level (NOEL), subchronic and chronic toxicity tests (rodents and non-rodents)",genotoxicity in vitro in the Ames test (Ames test),embryotoxicity and teratogenicity (rabbits; 1-10 μg/kg/day),NOEL for embryotoxic and teratogenic effects (rabbits),teratogenic dose (rabbits)
"CCCC(=O)O[C@]1(C(=O)CO)CC[C@H]2[C@@H]3C[C@H](F)C4=CC(=O)C=C[C@]4(C)[C@@]3(F)[C@@H](O)C[C@@]21C [Desacetyl Difluprednate (DFB), 6α,9-difluoroprednisolone 17-butyrate]",0.061 nM,–,–,–,–,–,–,–,–,–,–,–
"CCCC(=O)O[C@]1(C(=O)COC(C)=O)CC[C@H]2[C@@H]3C[C@H](F)C4=CC(=O)C=C[C@]4(C)[C@@]3(F)[C@@H](O)C[C@@]21C [Difluprednate (DFBA), Difluprednate]",0.78 nM,did not impair fertility in either gender,0.85 % Area,97.13 % Area,97.98 % Area,not genotoxic,negative,1 to 1.25 µg/kg/day,not genotoxic,embryotoxic (decrease in embryonic body weight and a delay in embryonic ossification) and teratogenic (cleft palate and skeletal anomalies),1 µg/kg/day,10 µg/kg/day
